Measured values published in US20170081698A1, “SURVIVAL ASSAYS FOR METAKARYOTIC STEM CELLS” (priority 2014, published 2017).
Entries after “also recorded” stand apart in the source; their conditions may differ.

Experiments:
HT-29 cells [1] = experiment: Survival assay counting large colonies of HT-29 cells plated as single cells in T-flasks, with replating of surviving colonies; format: cell-based, human; conditions: for treatment level above which large colonies did not contain metakaryotic cells and did not grow further upon replating (mortal colonies): HT-29, concentration x duration of exposure; for nature of surviving colonies (metakaryotic cells, growth upon passaging): HT-29, appropriate concentrations and durations of exposure; for stem cell number, by fraction of treated cells giving large, growing immortal colonies: HT-29 and CAPAN-1 lines; for applicants' interpretation of selectivity (metakaryotic stem cells versus eukaryotic cells): HT-29 cell population; for number of immortal colonies: HT-29 cultures; for sensitivity of eukaryotic cells relative to metakaryotes to killing: cultures of cells derived from human tumors; for exposure period required to assure killing greater than 99% of metakaryotic stem cells: HT-29 or CAPAN-1 cell cultures, certain concentrations
Excerpt: Large colonies visible to the eye and containing approximately 250 or more cells are enumerated manually or by an electronic colony counter adjusted to recognize colonies of these sizes.
As a practical tactic, the total number of large colonies (>250 cells) are counted and the number appearing on […] to untreated plates identifies the treatment as having killed either or both colonies arising from eukaryotic non-stem cells or from metakaryotic stem cells.
The assay, in one embodiment, involved plating single cells from an exponentially growing HT-29 cell culture in plastic T-flasks and counting the large colonies apparent five weeks after plating. Untreated control flasks provided the total number of immortal colonies and larger mortal colonies.

HT-29 cells [2] = experiment: Microscopic cytology of bell shaped metakaryotic nuclei in treated HT-29 cells (Hoechst, DAPI, Feulgen staining); format: cell-based, human; conditions: for aspect of bell shaped nuclei of metakaryotic colonies at the end of treatment: HT-29 colony assay flasks; for condensation of chromatin in bell shaped metakaryotic nuclei: HT-29 cultures
Capan-1 cells = experiment: Microscopic cytology of bell shaped metakaryotic nuclei in treated Capan-1 cells; conditions: Capan-1, equal to or greater than 10 micromolar for about one or more weeks
[3] = HT-29, 10 micromolar for 24 hours beginning 24 hours after seeding

Cc1ccc(-c2cc(C(F)(F)F)nn2-c2ccc(S(N)(=O)=O)cc2)cc1 [Celecoxib]
treatment level above which large colonies did not contain metakaryotic cells and did not grow further upon replating (mortal colonies) (HT-29 cells [1]): higher than 10 micromolar weeks
reduction of the total number of large colonies (HT-29 cells [1]; HT-29, two weeks beginning one day after transfer, ~2 to ~32 micromolar): about 10%

CC(=O)Nc1ccc(O)cc1 [acetaminophen]
nature of surviving colonies (metakaryotic cells, growth upon passaging) (HT-29 cells [1]): did not contain discernable metakaryotic cells nor were they capable of continued growth upon passaging
treatment level above which large colonies did not contain metakaryotic cells and did not grow further upon replating (mortal colonies) (HT-29 cells [1]): higher than 10 micromolar weeks
reduction of the total number of large colonies (HT-29 cells [1]; HT-29, two weeks beginning one day after transfer, ~5 to ~25 micromolar): about 10%
effect of higher concentrations on cells (HT-29 cells [1]; HT-29, two weeks, concentrations higher than the range of the figure): killed all cells
stem cell number, by fraction of treated cells giving large, growing immortal colonies (HT-29 cells [1]): reduction of stem cell number
applicants' interpretation of selectivity (metakaryotic stem cells versus eukaryotic cells) (HT-29 cells [1]): exterminated the metakaryotic stem cells but were not cytotoxic to the eukaryotic non-stem cells
number of immortal colonies (HT-29 cells [1]): reduce the number of immortal colonies
aspect of bell shaped nuclei of metakaryotic colonies at the end of treatment (HT-29 cells [2]): did not display recognizable deformed pyknotic aspects
condensation of chromatin in bell shaped metakaryotic nuclei (HT-29 cells [2]): do not induce the condensation of chromatin

O=C(O)CCCc1ccc(N(CCCl)CCCl)cc1 [chlorambucil]
surviving large colonies (HT-29 cells [1]; HT-29, ~3000 cells per flask, one day exposure, greater than ~10 micromolar): reduced the surviving large colonies monotonically to zero without displaying a plateau
sensitivity of eukaryotic cells relative to metakaryotes to killing (HT-29 cells [1]): markedly more sensitive

COc1cc2c(c(OC)c1OC)-c1ccc(OC)c(=O)cc1[C@@H](NC(C)=O)CC2 [colchicine]
sensitivity of eukaryotic cells relative to metakaryotes to killing (HT-29 cells [1]): markedly more sensitive

C[C@H]1c2cccc(O)c2C(=O)C2=C(O)[C@]3(O)C(=O)C(C(N)=O)=C(O)[C@@H](N(C)C)[C@@H]3[C@@H](O)[C@@H]21 [doxycycline]
treatment level above which large colonies did not contain metakaryotic cells and did not grow further upon replating (mortal colonies) (HT-29 cells [1]): higher than 4 micromolar weeks
reduction of the total number of large colonies (HT-29 cells [1]; HT-29, two weeks beginning one day after transfer, zero to ~10 micromolar): about 8%

CC(C)Cc1ccc(C(C)C(=O)O)cc1 (stereo not drawn) [ibuprofen]
number of immortal colonies (HT-29 cells [1]): reduce the number of immortal colonies
condensation of chromatin in bell shaped metakaryotic nuclei (HT-29 cells [2]): do not induce the condensation of chromatin

CN(C)C(=N)N=C(N)N [metformin]
further growth of remaining colonies upon trypsinized transfer (HT-29 cells [1]; HT-29, 100, 200 and 400 micromolar, five weeks): do not demonstrate further growth
nature of surviving colonies (metakaryotic cells, growth upon passaging) (HT-29 cells [1]): did not contain discernable metakaryotic cells nor were they capable of continued growth upon passaging
treatment level above which large colonies did not contain metakaryotic cells and did not grow further upon replating (mortal colonies) (HT-29 cells [1]): > 200 micromolar weeks
further decrease in total large colony count (HT-29 cells [1]; HT-29, treatment range ~200 to 2000 micromolar weeks): No further significant decrease
reduction of the total number of large colonies (HT-29 cells [1]; HT-29, ~1000 cells per flask, treatment levels from zero to ~100 micromolar weeks): about 10%
stem cell number, by fraction of treated cells giving large, growing immortal colonies (HT-29 cells [1]): reduction of stem cell number
exposure period required to assure killing greater than 99% of metakaryotic stem cells (HT-29 cells [1]): not less than six
nuclear chromatin condensation in metakaryotic versus eukaryotic cell nuclei (HT-29 cells [2]; 200-2000 micromolar-weeks): metakaryotic but not eukaryotic cell nuclei display nuclear chromatin condensation
aspect of bell shaped nuclei of metakaryotic colonies at the end of treatment (HT-29 cells [2]): displayed recognizable deformed aspects

COc1ccc2cc([C@H](C)C(=O)O)ccc2c1 [naproxen]
number of immortal colonies (HT-29 cells [1]): reduce the number of immortal colonies

O=c1[nH]c(=O)n([C@H]2C[C@H](O)[C@@H](CO)O2)cc1C(F)(F)F [trifluorothymidine]
effect on eukaryotic cells (HT-29 cells [1]; [3]): kills nearly all eukaryotic cells
effect on survival of metakaryotic cells (HT-29 cells [1]; [3]): no detectable effect
nature of surviving large colonies (metakaryotic cells, growth upon replating) (HT-29 cells [1]; HT-29, 24 hour exposure, ~7 to 17 micromolar): immortal and displayed visible metakaryotic cells by the 64 cell colony forming stage; also recorded: contained metakaryotic cells and grew continuously upon replating; also recorded: contained metakaryotic cells upon microscopic inspection and demonstrated the ability to grow continuously upon passaging
applicants' interpretation of selectivity (metakaryotic stem cells versus eukaryotic cells) (HT-29 cells [1]): exterminated the eukaryotic cells in the HT-29 cell population studied but was not toxic to the metakaryotic stem cells
sensitivity of eukaryotic cells relative to metakaryotes to killing (HT-29 cells [1]): markedly more sensitive

COc1ccc(CCN(C)CCCC(C#N)(c2ccc(OC)c(OC)c2)C(C)C)cc1OC (stereo not drawn) [verapamil]
nature of surviving colonies (metakaryotic cells, growth upon passaging) (HT-29 cells [1]): did not contain discernable metakaryotic cells nor were they capable of continued growth upon passaging
stem cell number, by fraction of treated cells giving large, growing immortal colonies (HT-29 cells [1]): reduction of stem cell number
exposure period required to assure killing greater than 99% of metakaryotic stem cells (HT-29 cells [1]): not less than six
fluorescent structures in the cytoplasmic organelle of metakaryotic cells (dsDNA dyes Hoechst, DAPI) (HT-29 cells [2]; HT-29, about one or more weeks of treatment): novel large bar structure; also recorded: bright blue fluorescent bars, crosses and more complex figures are observed
chromatin in bell shaped nuclei after Feulgen staining (HT-29 cells [2]; HT-29, e.g. 10 micromolar for about one or more weeks): condensed into rope like structures
pyknotic bell shaped nuclei with condensed chromatin (HT-29 cells [2]; HT-29 and CAPAN-1 cell cultures): dead (pyknotic) bell shaped metakaryotic cell nuclei; also recorded: pyknotic structures with bell shaped nuclei displaying grossly condensed chromatin structures
condensation of chromatin in bell shaped metakaryotic nuclei (HT-29 cells [2]): observed
nuclei of metakaryotic stem cells (Capan-1 cells): pyknotic nuclei

CC[C@]1(O)C[C@@H]2CN(CCc3c([nH]c4ccccc34)[C@@](C(=O)OC)(c3cc4c(cc3OC)N(C)[C@H]3[C@@](O)(C(=O)OC)[C@H](OC(C)=O)[C@]5(CC)C=CCN6CC[C@]43[C@@H]65)C2)C1 [vinblastine]
sensitivity of eukaryotic cells relative to metakaryotes to killing (HT-29 cells [1]): markedly more sensitive
